Like-named read-outs stand apart in the source and are kept apart here.

This test concerns the target T1, Recombinant human Src (Homo sapiens, UniProt P12931).
T1 construct: made in house; host or cells: baculovirus-insect cell system
Nature of the test: Src tyrosine kinase activity, poly E4Y and 32P-ATP. In kind it is biochemical. On the procedure: Recombinant human Src was expressed using the baculovirus-insect cell system and purified as published (Budde et al., 1993 and 2000). Recombinant Csk and the FGF receptor (FGFr) were expressed as glutathione-S-transferase fusion proteins using the pGEX expression vector and E. coli, and purified as described (Sun & Budde, 1995).
The tyrosine kinase activity of Src, Csk and FGFr was determined using poly E4Y and ^32P-ATP. Briefly, enzymes were assayed in a reaction mixture consisting of 0.15 M EPPS-NaOH (pH 8.0) with 6 mM MgCl2, 0.2 mM γ^32P-ATP (0.2-0.4 mCi/μmol), 10% glycerol, 0.1% Triton X-100, and poly E4Y. Poly E4Y is a synthetic peptide whose phosphorylation is measured in this assay by the addition of the radioactively labeled phosphate from the ATP (Budde et al., 1995). […] When ATP was varied (0, 50, 100 and 250 μM), poly E4Y was kept constant at 150 μg/ml.

Setting [1] is: Table 2, read-out: Src IC50 (especially good inhibitors of Src).
[2] abbreviates: read-out: IC50 (preferred compounds for treatment of Src family-related disease).

T1 sequence (P12931 whole entry): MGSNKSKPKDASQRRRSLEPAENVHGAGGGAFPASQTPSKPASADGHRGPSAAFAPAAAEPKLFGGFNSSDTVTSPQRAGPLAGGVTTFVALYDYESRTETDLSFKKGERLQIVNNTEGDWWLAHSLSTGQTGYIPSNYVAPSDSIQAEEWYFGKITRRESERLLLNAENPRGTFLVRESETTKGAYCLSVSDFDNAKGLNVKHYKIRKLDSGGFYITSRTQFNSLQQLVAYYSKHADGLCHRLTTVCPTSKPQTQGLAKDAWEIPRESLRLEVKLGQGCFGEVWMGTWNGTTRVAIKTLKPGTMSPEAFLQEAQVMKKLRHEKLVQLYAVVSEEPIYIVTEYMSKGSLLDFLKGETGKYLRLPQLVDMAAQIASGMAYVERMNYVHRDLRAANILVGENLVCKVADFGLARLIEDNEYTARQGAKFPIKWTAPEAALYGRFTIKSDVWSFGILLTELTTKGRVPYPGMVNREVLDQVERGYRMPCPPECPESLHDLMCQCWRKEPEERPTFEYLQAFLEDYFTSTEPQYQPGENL

For `COc1ccc(C=NNc2ncnc3c(C)c(-c4ccsc4)sc23)cc1O` [Compound 382, 3-Hydroxy-4-methoxybenzaldehyde(7-methyl-6-(3-thienyl)thieno[3,2-d]pyrimidin-4-yl)hydrazone], the IC50 under setting [1] is at most 2000 nM and the half-maximal inhibitory concentration (IC50) under setting [2] was below 2000 nM.
The corresponding values for `COc1ccc(C=NNc2ncnc3c(C)c(-c4cccc(CO)c4)sc23)cc1O` [Compound 443, 3-Hydroxy-4-methoxybenzaldehyde(6-(3-hydroxymethylphenyl)-7-methylthieno[3,2-d]pyrimidin-4-yl)hydrazone] are at most 2000 nM and below 2000 nM.
The corresponding values for `Cc1c(C(O)c2cccnc2)sc2c(NN=Cc3cccnc3)ncnc12` (stereo not shown) [Compound 483, 3-Pyridinecarboxaldehyde(6-(1-hydroxy-1-[3-pyridyl])methyl-7-methylthieno[3,2-d]pyrimidin-4-yl)hydrazone] are at most 2000 nM and below 2000 nM.
The corresponding values for `Cc1c(-c2ccccc2)sc2c(NN=Cc3ccc(C(=O)O)cc3)ncnc12` [Compound 360, 4-Carboxybenzaldehyde(7-methyl-6-phenylthieno[3,2-d]pyrimidin-4-yl)hydrazone] are at most 2000 nM and below 2000 nM.
On to `COc1ccc(C=NNc2ncnc3c(C)c(C(O)c4cccs4)sc23)cc1O` (stereo not shown) [Compound 490, 3-Hydroxy-4-methoxybenzaldehyde(6-(1-hydroxy-1-[2-thienyl])methyl-7-methylthieno[3,2-d]pyrimidin-4-yl)hydrazone], for which the IC50 under setting [1] is at most 2000 nM and the IC50 under setting [2] was below 2000 nM.
The corresponding values for `Cc1c(-c2ccc(C(=O)O)cc2)sc2c(NN=Cc3cccs3)ncnc12` [Compound 455, 2-Thiophenecarboxaldehyde(6-(4-carboxyphenyl)-7-methylthieno[3,2-d]pyrimidin-4-yl)hydrazone] are at most 2000 nM and below 2000 nM.
The corresponding values for `O=C(O)c1ccc(C=NNc2ncnc3c2sc2ncccc23)cc1` [Compound 245, 4-Carboxybenzaldehyde(pyrido[3′,2′:4,5]thieno[3,2-d]pyrimidin-4-yl)hydrazone] are at most 2000 nM and below 2000 nM.
The corresponding values for `Cc1c(C(O)c2cccnc2)sc2c(NN=Cc3ccc(C(=O)O)cc3)ncnc12` (stereo not shown) [Compound 484, 4-Carboxybenzaldehyde(6-(1-hydroxy-1-[3-pyridyl])methyl-7-methylthieno[3,2-d]pyrimidin-4-yl)hydrazone] are at most 2000 nM and below 2000 nM.
`Cc1c(C(O)c2ccccc2)sc2c(NN=Cc3cccnc3)ncnc12` (stereo not shown) [Compound 457, 3-Pyridinecarboxaldehyde(6-(1-hydroxy-1-phenyl)methyl-7-methylthieno[3,2-d]pyrimidin-4-yl)hydrazone]: the IC50 runs as follows: under setting [1], at most 2000 nM; under setting [2], below 2000 nM.
The corresponding values for `Cc1c(-c2ccsc2)sc2c(NN=Cc3ccc(C(=O)O)cc3)ncnc12` [Compound 380, 4-Carboxybenzaldehyde(7-methyl-6-(3-thienyl)thieno[3,2-d]pyrimidin-4-yl)hydrazone] are at most 2000 nM and below 2000 nM.
The corresponding values for `COc1ccc(-c2cc3ncnc(NN=Cc4cccnc4)c3s2)cc1` [Compound 405, 3-Pyridinecarboxaldehyde(6-(4-methoxyphenyl)thieno[3,2-d]pyrimidin-4-yl)hydrazone] are at most 2000 nM and below 2000 nM.
The corresponding values for `COc1ccc(-c2sc3c(NN=Cc4ccc(C(=O)O)cc4)ncnc3c2C)cc1` [Compound 423, 4-Carboxybenzaldehyde(6-(4-methoxyphenyl)-7-methylthieno[3,2-d]pyrimidin-4-yl)hydrazone] are at most 2000 nM and below 2000 nM.
With `Cc1c(C(Cc2ccccc2)c2ccccc2)sc2c(NN=Cc3cccs3)ncnc12` (stereo not shown) [Compound 474, 2-Thiophenecarboxaldehyde(6-(1-benzyl-1-phenyl)methyl-7-methylthieno[3,2-d]pyrimidin-4-yl)hydrazone], the concentration for half-maximal inhibition (IC50) reads like this: under setting [1], at most 2000 nM; under setting [2], below 2000 nM.
The corresponding values for `Cc1c(-c2ccc(CO)cc2)sc2c(NN=Cc3ccc(C(=O)O)cc3)ncnc12` [Compound 437, 4-Carboxybenzaldehyde(6-(4-hydroxymethylphenyl)-7-methylthieno[3,2-d]pyrimidin-4-yl)hydrazone] are at most 2000 nM and below 2000 nM.
The corresponding values for `Cc1c(C(Cc2ccccc2)c2ccccc2)sc2c(NN=Cc3cccnc3)ncnc12` (stereo not shown) [Compound 473, 3-Pyridinecarboxaldehyde(6-(1-benzyl-1-phenyl)methyl-7-methylthieno[3,2-d]pyrimidin-4-yl)hydrazone] are at most 2000 nM and below 2000 nM.
As for `Cc1c(-c2ccc(C(=O)O)cc2)sc2c(NN=Cc3cccnc3)ncnc12` [Compound 453, 3-Pyridinecarboxaldehyde(6-(4-carboxyphenyl)-7-methylthieno[3,2-d]pyrimidin-4-yl)hydrazone], the 50% inhibitory concentration (IC50) under setting [1] is at most 2000 nM and the concentration for half-maximal inhibition (IC50) under setting [2] is below 2000 nM.
As for `Cc1c(C(O)c2ccsc2)sc2c(NN=Cc3ccc(C(=O)O)cc3)ncnc12` (stereo not shown) [Compound 462, 4-Carboxybenzaldehyde(6-(1-hydroxy-1-[3-thienyl])methyl-7-methylthieno[3,2-d]pyrimidin-4-yl)hydrazone], the concentration for half-maximal inhibition (IC50) is, setting by setting: under setting [1], at most 2000 nM; under setting [2], below 2000 nM.
The corresponding values for `Cc1csc2c(NN=Cc3ccc(O)c([N+](=O)[O-])c3)ncnc12` [Compound 49, 4-Hydroxy-3-nitrobenzaldehyde(7-methylthieno[3,2-d]pyrimidin-4-yl)hydrazone] are at most 2000 nM and below 2000 nM.
Take `C(=NNc1ncnc2ccsc12)c1cccnc1` [Compound 98, 3-Pyridinecarboxaldehyde(thieno[3,2-d]pyrimidin-4-yl)hydrazone]: the IC50 was at most 2000 nM under setting [1] and below 2000 nM under setting [2].
The corresponding values for `Cc1c(-c2cccc(CO)c2)sc2c(NN=Cc3cccnc3)ncnc12` [Compound 440, 3-Pyridinecarboxaldehyde(6-(3-hydroxymethylphenyl)-7-methylthieno[3,2-d]pyrimidin-4-yl)hydrazone] are at most 2000 nM and below 2000 nM.
The corresponding values for `Cc1c(C(O)c2ccccc2)sc2c(NN=Cc3ccc(C(=O)O)cc3)ncnc12` (stereo not shown) [Compound 458, 4-Carboxybenzaldehyde(6-(1-hydroxy-1-phenyl)methyl-7-methylthieno[3,2-d]pyrimidin-4-yl)hydrazone] are at most 2000 nM and below 2000 nM.
Regarding `COc1ccccc1-c1sc2c(NN=Cc3cccs3)ncnc2c1C` [Compound 434, 2-Thiophenecarboxaldehyde(6-(2-methoxyphenyl)-7-methylthieno[3,2-d]pyrimidin-4-yl)hydrazone], the IC50 by setting is: under setting [1], at most 2000 nM; under setting [2], below 2000 nM.
The corresponding values for `Cc1c(C(O)c2ccsc2)sc2c(NN=Cc3cccnc3)ncnc12` (stereo not shown) [Compound 461, 3-Pyridinecarboxaldehyde(6-(1-hydroxy-1-[3-thienyl])methyl-7-methylthieno[3,2-d]pyrimidin-4-yl)hydrazone] are at most 2000 nM and below 2000 nM.
Turning to `Cc1c(C(=O)O)sc2c(NN=Cc3cccs3)ncnc12` [Compound 467, 2-Thiophenecarboxaldehyde(6-carboxy-7-methylthieno[3,2-d]pyrimidin-4-yl)hydrazone], under setting [2], the concentration for half-maximal inhibition (IC50) was below 2000 nM.
Turning to `COc1ccc(C=NNc2ncnc3c(C)c(C(O)c4ccccc4)sc23)cc1O` (stereo not shown) [Compound 460, 3-Hydroxy-4-methoxybenzaldehyde(6-(1-hydroxy-1-phenyl)methyl-7-methylthieno[3,2-d]pyrimidin-4-yl)hydrazone], the IC50 was at most 2000 nM under setting [1] and below 2000 nM under setting [2].
Consider `Cc1c(C(O)C2CCCCC2)sc2c(NN=Cc3ccc(C(=O)O)cc3)ncnc12` (stereo not shown) [Compound 470, 4-Carboxybenzaldehyde(6-(1-cyclohexyl-1-hydroxy)methyl-7-methylthieno[3,2-d]pyrimidin-4-yl)hydrazone], for which the concentration for half-maximal inhibition (IC50) is, setting by setting: under setting [1], at most 2000 nM; under setting [2], below 2000 nM.
The corresponding values for `Cc1c(/C=C/c2ccccc2)sc2c(NN=Cc3ccc(C(=O)O)cc3)ncnc12` [Compound 448, 4-Carboxybenzaldehyde(7-methyl-6-(trans-2-phenylvinyl)-thieno[3,2-d]pyrimidin-4-yl)hydrazone] are at most 2000 nM and below 2000 nM.
The corresponding values for `COc1ccc(C=NNc2ncnc3cc(-c4ccccc4Cl)sc23)cc1O` [Compound 321, 3-Hydroxy-4-methoxybenzaldehyde(6-(2-chlorophenyl)thieno[3,2-d]pyrimidin-4-yl)hydrazone] are at most 2000 nM and below 2000 nM.
The corresponding values for `Cc1c(-c2cccc(CO)c2)sc2c(NN=Cc3ccc(C(=O)O)cc3)ncnc12` [Compound 441, 4-Carboxybenzaldehyde(6-(3-hydroxymethylphenyl)-7-methylthieno[3,2-d]pyrimidin-4-yl)hydrazone] are at most 2000 nM and below 2000 nM.
`Cc1c(-c2ccccc2)sc2c(NN=Cc3cccnc3)ncnc12` [Compound 359, 3-Pyridinecarboxaldehyde(7-methyl-6-phenylthieno[3,2-d]pyrimidin-4-yl)hydrazone]: the 50% inhibitory concentration (IC50) is at most 2000 nM under setting [1] and below 2000 nM under setting [2].
The corresponding values for `Cc1c(C(O)C2CCCCC2)sc2c(NN=Cc3cccs3)ncnc12` (stereo not shown) [Compound 471, 2-Thiophenecarboxaldehyde(6-(1-cyclohexyl-1-hydroxy)methyl-7-methylthieno[3,2-d]pyrimidin-4-yl)hydrazone] are at most 2000 nM and below 2000 nM.

Usually IC50 stands for the point on the concentration scale where inhibition reaches its midpoint.

The record behind these values is US7285556B2, “Thienopyrimidine-based inhibitors of the src family” (Board of Regents, The University of Texas Systems, priority 2000, dated 2007).
